Laboratory results taken from the NIST ThermoML archive (doi:10.1021/acs.jced.8b00554).

Assay: xn = mol fraction of the nth substance listed
Settings: Liquid, Vibrating tube method

CCCCCCCCCC [decane] + CCCO
mass density [kg/m3]
Settings | 353.15 K | 363.15 K
100 kPa, x2 = 0.1391 | – | 664.41
100 kPa, x2 = 0.1907 | – | 663.86
100 kPa, x2 = 0.3001 | – | 664.03
100 kPa, x2 = 0.4326 | – | 666.18
100 kPa, x2 = 0.6863 | – | 680.95
100 kPa, x2 = 0.8711 | – | 705.01
1000 kPa, x2 = 0.1907 | – | 665.28
1010 kPa, x2 = 0.1391 | – | 665.85
1010 kPa, x2 = 0.3001 | – | 666.15
1010 kPa, x2 = 0.6863 | – | 682.3
1010 kPa, x2 = 0.8711 | – | 706.22
1020 kPa, x2 = 0.4326 | – | 667.3
2000 kPa, x2 = 0.1391 | – | 667.06
2000 kPa, x2 = 0.1907 | – | 666.5
2000 kPa, x2 = 0.6863 | – | 683.55
2000 kPa, x2 = 0.8711 | – | 707.37
2020 kPa, x2 = 0.3001 | – | 667.4
2020 kPa, x2 = 0.4326 | – | 668.51
3000 kPa, x2 = 0.3001 | – | 668.59
3010 kPa, x2 = 0.1391 | – | 668.24
3010 kPa, x2 = 0.4326 | – | 669.77
3010 kPa, x2 = 0.6863 | – | 684.83
3020 kPa, x2 = 0.1907 | – | 667.69
3020 kPa, x2 = 0.8711 | – | 708.57
4010 kPa, x2 = 0.1391 | – | 669.44
4010 kPa, x2 = 0.1907 | – | 668.95
4010 kPa, x2 = 0.3001 | – | 669.83
4010 kPa, x2 = 0.6863 | – | 686.13
4010 kPa, x2 = 0.8711 | – | 709.79
4020 kPa, x2 = 0.4326 | – | 671.06
5000 kPa, x2 = 0.4326 | – | 672.31
5010 kPa, x2 = 0.1907 | – | 670.1
5010 kPa, x2 = 0.8711 | – | 711.06
5020 kPa, x2 = 0.1391 | – | 670.64
5020 kPa, x2 = 0.3001 | – | 671.07
5020 kPa, x2 = 0.6863 | – | 687.44
6010 kPa, x2 = 0.3001 | – | 672.31
6010 kPa, x2 = 0.8711 | – | 712.33
6020 kPa, x2 = 0.1391 | – | 671.83
6020 kPa, x2 = 0.1907 | – | 671.28
6020 kPa, x2 = 0.4326 | – | 673.61
6020 kPa, x2 = 0.6863 | – | 688.73
7010 kPa, x2 = 0.1907 | – | 672.49
7010 kPa, x2 = 0.6863 | – | 690.06
7020 kPa, x2 = 0.1391 | – | 673.03
7020 kPa, x2 = 0.3001 | – | 673.57
7020 kPa, x2 = 0.4326 | – | 674.92
7020 kPa, x2 = 0.8711 | – | 713.62
8000 kPa, x2 = 0.3001 | – | 674.82
8000 kPa, x2 = 0.4326 | – | 676.22
8000 kPa, x2 = 0.6863 | – | 691.39
8010 kPa, x2 = 0.1907 | – | 673.78
8020 kPa, x2 = 0.1391 | – | 674.3
8020 kPa, x2 = 0.8711 | – | 714.86
9000 kPa, x2 = 0.1391 | – | 675.46
9000 kPa, x2 = 0.3001 | – | 676.11
9000 kPa, x2 = 0.6863 | – | 692.72
9010 kPa, x2 = 0.1907 | – | 675
9010 kPa, x2 = 0.4326 | – | 677.52
9020 kPa, x2 = 0.8711 | – | 716.13
10000 kPa, x2 = 0.1391 | – | 676.67
10000 kPa, x2 = 0.1907 | – | 676.19
10010 kPa, x2 = 0.3001 | 690.11 | 677.41
10010 kPa, x2 = 0.6863 | – | 694.02
10010 kPa, x2 = 0.8711 | 731.37 | 717.4
10020 kPa, x2 = 0.1907 | 688.55 | –
10020 kPa, x2 = 0.4326 | – | 678.87
11000 kPa, x2 = 0.1391 | – | 677.93
11000 kPa, x2 = 0.6863 | 710.38 | –
11010 kPa, x2 = 0.3001 | 691.26 | 678.66
11010 kPa, x2 = 0.4326 | 694.72 | –
11010 kPa, x2 = 0.6863 | – | 695.33
11020 kPa, x2 = 0.1391 | 689.4 | –
11020 kPa, x2 = 0.1907 | 689.66 | 677.43
11020 kPa, x2 = 0.4326 | – | 680.14
11020 kPa, x2 = 0.8711 | 732.51 | 718.66
12000 kPa, x2 = 0.1391 | – | 679.09
12000 kPa, x2 = 0.1907 | – | 678.73
12000 kPa, x2 = 0.3001 | – | 679.92
12010 kPa, x2 = 0.1391 | 690.47 | –
12010 kPa, x2 = 0.1907 | 690.83 | –
12010 kPa, x2 = 0.4326 | 695.89 | 681.46
12010 kPa, x2 = 0.6863 | 711.53 | 696.59
12010 kPa, x2 = 0.8711 | 733.61 | 719.87
12020 kPa, x2 = 0.3001 | 692.38 | –
13000 kPa, x2 = 0.3001 | 693.53 | –
13000 kPa, x2 = 0.8711 | 734.68 | –
13010 kPa, x2 = 0.1391 | 691.56 | 680.3
13010 kPa, x2 = 0.1907 | – | 679.91
13010 kPa, x2 = 0.3001 | – | 681.16
13010 kPa, x2 = 0.4326 | – | 682.71
13010 kPa, x2 = 0.6863 | – | 697.91
13020 kPa, x2 = 0.1907 | 691.91 | –
13020 kPa, x2 = 0.4326 | 697.03 | –
13020 kPa, x2 = 0.6863 | 712.69 | –
13020 kPa, x2 = 0.8711 | – | 721.04
14000 kPa, x2 = 0.1907 | – | 681.11
14000 kPa, x2 = 0.4326 | – | 683.94
14010 kPa, x2 = 0.1391 | – | 681.47
14010 kPa, x2 = 0.1907 | 692.99 | –
14010 kPa, x2 = 0.3001 | – | 682.38
14020 kPa, x2 = 0.1391 | 692.62 | –
14020 kPa, x2 = 0.3001 | 694.63 | –
14020 kPa, x2 = 0.4326 | 698.13 | –
14020 kPa, x2 = 0.6863 | 713.81 | 699.14
14020 kPa, x2 = 0.8711 | 735.8 | 722.27
15000 kPa, x2 = 0.1907 | – | 682.24
15000 kPa, x2 = 0.4326 | – | 685.14
15000 kPa, x2 = 0.6863 | – | 700.32
15010 kPa, x2 = 0.3001 | – | 683.55
15010 kPa, x2 = 0.4326 | 699.22 | –
15010 kPa, x2 = 0.6863 | 714.9 | –
15010 kPa, x2 = 0.8711 | 736.86 | 723.44
15020 kPa, x2 = 0.1391 | 693.66 | 682.58
15020 kPa, x2 = 0.1907 | 694.05 | –
15020 kPa, x2 = 0.3001 | 695.7 | –
16000 kPa, x2 = 0.3001 | – | 684.7
16000 kPa, x2 = 0.4326 | – | 686.33
16010 kPa, x2 = 0.1391 | 694.64 | 683.66
16010 kPa, x2 = 0.1907 | 695.08 | 683.38
16010 kPa, x2 = 0.4326 | 700.29 | –
16010 kPa, x2 = 0.6863 | 715.98 | –
16010 kPa, x2 = 0.8711 | – | 724.56
16020 kPa, x2 = 0.3001 | 696.78 | –
16020 kPa, x2 = 0.6863 | – | 701.55
16020 kPa, x2 = 0.8711 | 737.89 | –
17000 kPa, x2 = 0.3001 | – | 685.86
17000 kPa, x2 = 0.4326 | 701.32 | –
17010 kPa, x2 = 0.1391 | – | 684.77
17010 kPa, x2 = 0.1907 | 696.15 | 684.57
17010 kPa, x2 = 0.3001 | 697.84 | –
17010 kPa, x2 = 0.4326 | – | 687.43
17010 kPa, x2 = 0.6863 | 717.03 | –
17020 kPa, x2 = 0.1391 | 695.67 | –
17020 kPa, x2 = 0.6863 | – | 702.7
17020 kPa, x2 = 0.8711 | 738.93 | 725.68
18000 kPa, x2 = 0.1391 | – | 685.82
18000 kPa, x2 = 0.1907 | – | 685.6
18000 kPa, x2 = 0.3001 | – | 686.93
18010 kPa, x2 = 0.4326 | 702.35 | –
18010 kPa, x2 = 0.6863 | 718.05 | 703.81
18010 kPa, x2 = 0.8711 | – | 726.78
18020 kPa, x2 = 0.1391 | 696.65 | –
18020 kPa, x2 = 0.1907 | 697.1 | –
18020 kPa, x2 = 0.3001 | 698.82 | –
18020 kPa, x2 = 0.4326 | – | 688.58
18020 kPa, x2 = 0.8711 | 739.92 | –
19000 kPa, x2 = 0.1391 | 697.56 | 686.79
19000 kPa, x2 = 0.4326 | – | 689.63
19000 kPa, x2 = 0.8711 | – | 727.82
19010 kPa, x2 = 0.1907 | 698.02 | 686.57
19010 kPa, x2 = 0.3001 | 699.8 | 687.98
19020 kPa, x2 = 0.4326 | 703.33 | –
19020 kPa, x2 = 0.6863 | 719.04 | 704.89
19020 kPa, x2 = 0.8711 | 740.89 | –
20000 kPa, x2 = 0.3001 | – | 688.93
20000 kPa, x2 = 0.4326 | 704.33 | –
20000 kPa, x2 = 0.6863 | 720.06 | –
20000 kPa, x2 = 0.8711 | 741.82 | 728.82
20010 kPa, x2 = 0.1391 | 698.43 | 687.72
20010 kPa, x2 = 0.1907 | 698.94 | 687.53
20010 kPa, x2 = 0.3001 | 700.68 | –
20010 kPa, x2 = 0.4326 | – | 690.72
20010 kPa, x2 = 0.6863 | – | 706
